For 16 molecules, IC50 results are on record in US20140005103A1, “SULFONAMIDE DERIVATIVES AND METHODS OF USE THEREOF FOR IMPROVING THE PHARMACOKINETICS OF A DRUG” (Merck, Sharp & Dohme Corp., priority 2012, published 2014).

Molecules are shown by their SMILES. pIC50: −log10 of the molar value.

In one experiment the target is T1, human CYP11B1 (Homo sapiens, UniProt P15538).
T1 construct: expressed in transfected cells
T1 sequence (P15538 25-503): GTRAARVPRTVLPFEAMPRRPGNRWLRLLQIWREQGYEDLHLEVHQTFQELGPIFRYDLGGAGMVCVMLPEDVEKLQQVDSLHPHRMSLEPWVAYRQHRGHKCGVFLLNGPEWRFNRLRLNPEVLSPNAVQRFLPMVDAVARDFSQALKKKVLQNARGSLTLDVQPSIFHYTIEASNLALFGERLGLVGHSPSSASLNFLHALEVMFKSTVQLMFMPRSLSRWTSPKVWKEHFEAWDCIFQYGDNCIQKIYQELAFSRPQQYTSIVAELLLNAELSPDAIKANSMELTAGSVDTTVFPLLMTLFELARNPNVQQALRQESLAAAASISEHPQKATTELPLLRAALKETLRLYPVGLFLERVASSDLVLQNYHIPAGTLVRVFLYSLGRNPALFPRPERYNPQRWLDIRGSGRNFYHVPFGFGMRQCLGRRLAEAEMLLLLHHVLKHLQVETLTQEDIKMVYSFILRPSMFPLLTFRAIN
Put plainly: IC50 vs CYP11B1 by cortisol synthesis in V79 cells. Format: cell-based. To be noted: V79 cells expressing human CYP11B1, 1500 nM RSS, cortisol HTRF; test concentrations 0.5-10000 nM. The protocol:
(§1) Determination of IC50 vs CYP11B1/CYP11B2 by Measurement of Cortisol/Aldosterone Synthesis
(§2) This assay was performed in a standard 384-well plate design using cultured V79 cells stably expressing human CYP11B1 or human CYP11B2. Test compounds at 10 concentrations (for example, 10000, 3333.3, 1111.1, 370.4, 123.5, 41.2, 13.7, 4.6, 1.5 and 0.5 nM) were added in 384-well plate after the cell-seeding procedure. The incubation substrate contains 1500 nM RSS for CYP11B1 assay/750 nM DOC for CYP11B2 assay. The
(§3) Cortisol/Aldosterone production of cell culture supernatant was determined by Cortisol/Aldosterone HTRF kit after for about 15 hours incubation at RT (protect from light). IC50 values were calculated from the percent inhibition observed for each test compound at 10 concentrations.
(§4) The assay plate was read using Envision (Perkin Elmer, Waltham, Mass.) at 665 nm and 590 nm (using Filter Barcode of 217#, 205#; Mirror Barcode of 446#).
(§5) Data are analyzed using Assay Data Analyzer. All ratio data (665 nm/590 nm) are back calculated according to the standard curve, resulting in Cortisol/Aldosterone concentrations. IC50 values are reported as the Inflection Point (IP) of a four parameter fit of the titration data.
(§6) The following equation was used to calculate the % inhibition:
(§7) % Activity=100×{1−(Sample_back calculated Cortisol/Aldosterone concentration−LC_back calculated Cortisol/Aldosterone concentration)/(HC_back calculated Cortisol/Aldosterone concentration−LC_back calculated Cortisol/Aldosterone concentration)}
(In general: Time-resolved FRET reads energy transfer from a long-lived donor to a nearby acceptor.)

A further experiment has as its target T2, CYP2C9 (Homo sapiens, UniProt P11712).
T2 construct: 0.1 mg/mL protein human liver microsomes (BD Gentest); tissue BD Gentest; host or cells: human liver microsomes
Put plainly: Cocktail CYP assay, diclofenac 4'-hydroxylation. The class given is in vitro ADME. Conditions: human liver microsomes, 5 μM diclofenac; test concentrations up to 10 μM. The procedure:
Determination of IC50 in a Cocktail Assay for CYPs 1A2, 2C9, 2C19, 2D6 and 3A4
This assay was performed in a standard 96-well plate design. IC50 values were calculated from the percent inhibition observed for each test compound at 6 concentrations (for example, 0.0032, 0.016, 0.08, 0.4, 2 and 10 μM). The incubation substrate mix contains 10 μM phenacetin (1A2), 5 μM diclofenac (2C9), 30 μM mephenyloin (2C19), 5 μM dextromethorphan (2D6) and 2 μM midazolam (3A4), 0.1 mg/mL protein human liver microsomes (BD Gentest), 1 mM NAPDH, 3.3 mM MgCl2 and 100 mM potassium phosphate buffer (pH 7.4). The production of the metabolite of each probe substrate was determined after incubation for 10 min at 37° C. Quantitation of the metabolite peak area ratio against an internal standard (tolbutamide) was determined by LC/MS/MS analysis following acetonitrile treatment of the incubations.
Samples were analyzed in the MRM mode with a SCIEX API-4000 mass spectrometer (Applied Biosystems, Foster City, Calif.), with a Shimadzu LC-20 AD pump (Shimadzu corporation, Kyoto, JP) and a CTC PAL autosampler (Agilent Technologies, Switzerland). A Phenomenex, Luna, […], 100 A, 2.00×30 mm HPLC column was used for the separation. The mobile phases were: (A) 0.1% formic acid in water and (B) 0.1% formic acid in acetonitrile. The binary gradient was as follows.
The peak area ratio of the analyte to the internal standard was used to quantify the metabolite. The values of peak area ratios in the presence of test compound were compared to those of maximum or minimum controls and were expressed as % inhibition by interpolating between the maximum and minimum peak area ratios. Incubations with no inhibitor were defined as the maxima.
as §6
[1−[(X−Low control)/(High control−Low control)]]*100
For the IC50 calculation, SigmaPlot was used to plot the mean % inhibition versus the test compound concentrations and for non-linear regression analysis of the data. Depending on the range of data points defining the inhibition curve, the data may have been fit to the 4-parameter logistic equation.
On the technique in general: Microsomes from liver hold many membrane-bound enzymes, among them those of drug oxidation.

The target in the next experiment is T3, human CYP11B2 (Homo sapiens, UniProt P19099).
T3 construct: expressed in transfected cells
T3 sequence (P19099 25-503): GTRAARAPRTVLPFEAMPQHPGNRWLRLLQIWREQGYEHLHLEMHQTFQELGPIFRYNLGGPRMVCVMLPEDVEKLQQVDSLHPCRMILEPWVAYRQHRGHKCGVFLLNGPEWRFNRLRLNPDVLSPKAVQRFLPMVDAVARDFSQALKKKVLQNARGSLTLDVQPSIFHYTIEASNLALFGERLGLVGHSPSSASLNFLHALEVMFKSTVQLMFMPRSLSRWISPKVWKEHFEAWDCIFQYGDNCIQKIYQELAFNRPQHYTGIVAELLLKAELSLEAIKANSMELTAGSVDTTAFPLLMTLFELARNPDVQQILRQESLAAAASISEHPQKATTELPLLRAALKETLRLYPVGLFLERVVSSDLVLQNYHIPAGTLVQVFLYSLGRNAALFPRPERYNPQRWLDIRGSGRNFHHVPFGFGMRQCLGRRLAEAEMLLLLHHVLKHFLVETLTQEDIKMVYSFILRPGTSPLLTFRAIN
Put plainly: IC50 vs CYP11B2 by aldosterone synthesis in V79 cells. Format: cell-based. Conditions: V79 cells expressing human CYP11B2, 750 nM DOC, aldosterone HTRF; test concentrations 0.5-10000 nM. The protocol:
as §1, §2, §3, §4, §5, §6, §7

T2 sequence (P11712 whole entry): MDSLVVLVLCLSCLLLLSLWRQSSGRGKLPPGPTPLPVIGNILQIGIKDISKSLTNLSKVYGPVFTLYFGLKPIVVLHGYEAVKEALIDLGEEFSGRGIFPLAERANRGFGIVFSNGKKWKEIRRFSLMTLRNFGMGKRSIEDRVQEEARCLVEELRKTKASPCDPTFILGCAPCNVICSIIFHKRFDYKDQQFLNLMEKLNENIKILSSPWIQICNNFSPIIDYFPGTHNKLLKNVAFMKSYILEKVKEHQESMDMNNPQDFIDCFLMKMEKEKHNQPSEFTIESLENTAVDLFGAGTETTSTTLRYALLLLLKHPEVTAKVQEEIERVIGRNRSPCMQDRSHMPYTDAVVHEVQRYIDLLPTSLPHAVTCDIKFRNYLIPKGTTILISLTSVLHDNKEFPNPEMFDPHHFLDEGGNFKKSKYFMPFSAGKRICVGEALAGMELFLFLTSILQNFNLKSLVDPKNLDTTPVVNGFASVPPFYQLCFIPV

With `CC1CN2C[C@H](O)C[C@H]2CN1c1ncc(S(=O)(=O)N2CCN(Cc3cncn3[C@H](C)c3ccc(F)cc3)CC2)s1` (single isomer, unassigned) [Compound 22], the pIC50 against human CYP11B1 is 5.93; at CYP2C9, 5.24; on human CYP11B2, 5.87.

With `C[C@H](c1ccc(F)cc1)n1cncc1CN1CCN(S(=O)(=O)c2cnc(N3CCNCC3)s2)CC1` [Compound 1], the pIC50 at human CYP11B1 was 5.75; on CYP2C9, 5.64; against human CYP11B2, 5.77.

On to `C[C@H](c1ccc(F)cc1)n1cncc1CN1CCN(S(=O)(=O)c2cnc(N3CCN(C)CC3)s2)CC1` [Compound 2], for which the pIC50 was 6.67 against human CYP11B1, 5.49 against CYP2C9 and 7.11 against human CYP11B2.

Take `C[C@H](c1ccc(F)cc1)n1cncc1CN1CCN(S(=O)(=O)c2cnc(N3CCC4(CC3)CNC(=O)N4)s2)CC1` [Compound 3]: the results for the pIC50 on human CYP11B1, against CYP2C9 and against human CYP11B2 were < 5.00, 5.83 and < 5.00, respectively.

Regarding `C[C@H](c1ccc(C#N)cc1)n1cncc1CN1CCN(S(=O)(=O)c2cnc(Nc3ccc(C(F)(F)F)cn3)s2)CC1` [Compound 4], the results for the pIC50 against human CYP11B1, at CYP2C9 and at human CYP11B2 were 6.65, 5.73 and 6.35, respectively.

`C[C@H](c1ccc(F)cc1)n1cncc1CN1CCN(S(=O)(=O)c2cnc(N3CCN4C[C@H](O)C[C@H]4C3)s2)CC1` [Compound 5]: the pIC50 on human CYP11B1 is 5.70; against CYP2C9, 5.35; against human CYP11B2, 5.32.

As for `C[C@H](c1ccc(F)cc1)n1cncc1CN1CCN(S(=O)(=O)c2cnc(N3CCN4C[C@H](O)C[C@@H]4C3)s2)CC1` [Compound 6], the results for the pIC50 on human CYP11B1, against CYP2C9 and at human CYP11B2 were 5.81, 5.71 and 5.41, respectively.

In the case of `C[C@H](c1ccc(F)cc1)n1cncc1CN1CCN(S(=O)(=O)c2cnc(N3CCC(S(C)(=O)=O)C3)s2)CC1` (stereo partly drawn) [Compound 8], the pIC50 at human CYP11B1 is < 5.00; at CYP2C9, 5.46; at human CYP11B2, 5.40.

In the case of `C[C@H](c1ccc(F)cc1)n1cncc1CN1CCN(S(=O)(=O)c2cnc(N3CCN(C4CCN(C)CC4)CC3)s2)CC1` [Compound 9], the pIC50 against human CYP11B1 was 5.69; against CYP2C9 it was 5.39; at human CYP11B2, 5.41.

In the case of `C[C@H](c1ccc(F)cc1)n1cncc1CN1CCN(S(=O)(=O)c2cnc(N3CCN4C[C@@H](CN)C[C@H]4C3)s2)CC1` [Compound 10], the values for the pIC50 against human CYP11B1, on CYP2C9 and against human CYP11B2 were 5.72, 5.57 and < 5.00, respectively.

For `C[C@H](c1ccc(F)cc1)n1cncc1CN1CCN(S(=O)(=O)c2cnc(N3CC[C@@H](N)[C@H](F)C3)s2)CC1` [Compound 11], the negative-log IC50 (pIC50) against human CYP11B1 is 5.96; on CYP2C9, 5.67; against human CYP11B2 it was 5.47.

On to `C[C@H](c1ccc(F)cc1)n1cncc1CN1CCN(S(=O)(=O)c2cnc(N3CC[C@@H]4NCCO[C@H]4C3)s2)CC1` [Compound 15], for which the pIC50 was 5.77 on human CYP11B1, 5.61 against CYP2C9 and 5.44 against human CYP11B2.

`C[C@H](c1ccc(F)cc1)n1cncc1CN1CCN(S(=O)(=O)c2cnc(N3CC(=O)N4C[C@H](O)C[C@H]4C3)s2)CC1` [Compound 16]: the figures for the pIC50 against human CYP11B1, against CYP2C9 and on human CYP11B2 were < 5.00, 5.04 and 5.34, respectively.

Turning to `C[C@H](c1ccc(F)cc1)n1cncc1CN1CCN(S(=O)(=O)c2cnc(NCC(F)CN)s2)CC1` (stereo partly drawn) [Compound 17], the pIC50 at human CYP11B1 was < 5.00; against CYP2C9 it was 5.61; against human CYP11B2, 5.03.

For the molecule `C[C@H](c1ccc(F)cc1)n1cncc1CN1CCN(S(=O)(=O)c2cnc(N3CCN4C[C@H](O)C[C@H]4C3=O)s2)CC1` [Compound 18], the pIC50 was 5.59 against human CYP11B1, 5.64 on CYP2C9 and 5.34 at human CYP11B2.

For `C[C@H](c1ccc(F)cc1)n1cncc1CN1CCN(S(=O)(=O)c2cnc(N3CCN4C[C@H](O)CC[C@H]4C3)s2)CC1` [Compound 19], the pIC50 is 5.73 at human CYP11B1, 5.85 against CYP2C9 and 5.72 on human CYP11B2.

Broadly, the pIC50 is the negative decadic logarithm of the IC50, by convention in mol/L. High values mean a small IC50, low ones a large IC50.
